18 compounds from US20240150293A1, “SPIROCYCLOHEXANE DERIVATIVES, PHARMACEUTICAL COMPOSITIONS CONTAINING THEM AND THEIR USES AS ANTI-APOPTOTIC INHIBITORS” (LES LABORATOIRES SERVIER, priority 2021, published 2024) can be followed below.

The target in experiment [1] is Cy5-labelled Mcl1 (amino acids 171-321) C286S protein (UniProtKB Q07820) (Homo sapiens (Human), UniProt Q07820, C286S). Description: Inhibition of Mcl-1 by the fluorescence quenching assay (Example A, Method B). The class given is binding. Put shortly:
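Cy5-labelled Mcl1 171-321 C286S (1 nM) quenched by TQ5WS-labelled PUMA peptide (10, 20 or 400 nM); displacement raises fluorescence (Ex 620/Em 680 nm). Buffer 10 mM HEPES, 150 mM NaCl, 0.05% Tween 20, pH 7.4, 5% DMSO; 2 h at room temperature, 11-point curves, IC50 converted to Ki (cKi/eKi).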

The next experiment has as its system NCI-H929 cell lines. The experiment is described as follows: In vitro cytotoxicity, CellTiter-Glo (CTG) assay (Example B, Method B). It counts as cell-based. To be noted: NCI-H929 cells, 48 h incubation, read-out: C50. Here is the method: Cellular viability was monitored with the cell viability assay (Cell Titer-Glo®) on NCI-H929 cell lines. The CellTiter-Glo® (CTG) Luminescent Cell Viability Assay (from Promega) is a homogeneous method to determine the number of viable cells in culture based on quantitation of the ATP present, which signals the presence of metabolically active cells.
Concentration response of test compounds are performed with 10 mM stock solutions (DMSO), 11-points curve, in a 384-well compound plate. The assay plate is prepared by stamping 120 nL from compound dilution plate of all different concentrations (e.g. 10 mM to have final 30 μM assay test) into a cell culture microplate, using Echo acoustic liquid handling (Labcyte, Beckman). 40 μl of cell solution is added and cells are incubated with compounds for 48 h at 37° C., 5% CO2. CTG was added to the cells (according to the manufacturer instructions) and luminescence intensity was recorded using the Pherastar plate reader (BMG).
This assay provides in vitro cellular efficacy of compounds of Formula (I) tested, measuring the C50, defined as the concentration needed to reach 50% of the cellular viability.

Experiment [2] has as its system H929 multiple myeloma tumor line. Description: In vitro cytotoxicity, MTT assay (Example B, Method A). It counts as cell-based. To be noted: Homo sapiens, NCI-H929, 48 h, H929 cells, 48 hours exposure, read-out: C50. Here is the method:
The cytotoxicity studies were carried out on the H929 multiple myeloma tumor line.
The cells are distributed onto microplates and exposed to the test compounds for 48 hours. The cell viability is then quantified by a colorimetric assay, the Microculture Tetrazolium Assay (Carmichael et al, Cancer Res. 1987, 47, 939-942).
The results are expressed in C50 which means concentration corresponding to […] of effect/inhibition.

Where two headings read alike, the source gives them in different places.

Chain of Cy5-labelled Mcl1 (amino acids 171-321) C286S protein (Q07820 171-321 C286S): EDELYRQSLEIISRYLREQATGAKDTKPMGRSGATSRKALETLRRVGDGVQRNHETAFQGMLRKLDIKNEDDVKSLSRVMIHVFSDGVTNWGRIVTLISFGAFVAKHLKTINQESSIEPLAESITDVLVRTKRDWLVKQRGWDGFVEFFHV

For `CC1CCNc2nccc(OC[C@H](C)C[C@H]3Cc4ccccc4[C@]34CC[C@@](Nc3cccc(Cl)c3)(C(=O)O)CC4)c21` (single isomer, unassigned) [Example 641], in experiment [1], the Ki was determined as 14 nM. In addition, the IC50 in the experiment with NCI-H929 cell lines worked out at 3030 nM.

Regarding `CC1CCNc2nccc(OC[C@H](C)C[C@H]3Cc4ccccc4[C@]34CC[C@@](Nc3cccc(Cl)c3)(C(=O)O)CC4)c21` (single isomer, unassigned) [Example 642], the Ki in experiment [1] was found to be 0.724 nM. The IC50 in the experiment with NCI-H929 cell lines was determined as 460 nM.

In the case of `C[C@@H](COc1ccnc2c1[C@H](C)CCC2)CC1Cc2c(Cl)c(Cl)ccc2[C@]12CC[C@@](Nc1cccc(Cl)c1)(C(=O)O)CC2` (single isomer, unassigned) [Example 751], in experiment [1], the Ki amounted to 0.644 nM. Moreover, the IC50 in the experiment on NCI-H929 cell lines (Homo sapiens, NCI-H929, 48 h) amounted to 279 nM.

On to `C[C@@H](COc1ccnc2c1[C@H](C)CCC2)CC1Cc2c(Cl)c(Cl)ccc2[C@]12CC[C@@](Nc1cccc(Cl)c1)(C(=O)O)CC2` (single isomer, unassigned) [Example 752], for which, in experiment [1], the Ki came to 0.321 nM. Also, in the experiment on NCI-H929 cell lines, the IC50 was 344 nM.

Turning to `CC(=O)c1cc(C)c2c(c1)[C@]1(CC[C@@](Nc3cccc(Cl)c3)(C(=O)O)CC1)C(C[C@@H](C)COc1ccnc3c1[C@H](C)CCC3)C2` (single isomer, unassigned) [Example 757], the Ki in experiment [1] was found to be 1.9 nM. In the experiment with NCI-H929 cell lines, the IC50 worked out at 200 nM.

As for `CC(=O)c1cc(C)c2c(c1)[C@]1(CC[C@@](Nc3cccc(Cl)c3)(C(=O)O)CC1)C(C[C@@H](C)COc1ccnc3c1[C@H](C)CCC3)C2` (single isomer, unassigned) [Example 758], the Ki in experiment [1] was 1.19 nM. Further, the IC50 with NCI-H929 cell lines amounted to 97.2 nM.

For `CC(O)c1ccc2c(c1)[C@]1(CC[C@@](Nc3cccc(Cl)c3)(C(=O)O)CC1)[C@@H](C[C@@H](C)COc1ccnc3c1[C@H](C)CCC3)C2` (single isomer, unassigned) [Example 859], the Ki in experiment [1] worked out at 0.0375 nM. The IC50 in the experiment with NCI-H929 cell lines is 43.7 nM.

As for `CC(O)c1ccc2c(c1)[C@]1(CC[C@@](Nc3cccc(Cl)c3)(C(=O)O)CC1)[C@@H](C[C@@H](C)COc1ccnc3c1[C@H](C)CCC3)C2` (single isomer, unassigned) [Example 860], in experiment [1], the Ki amounted to 0.0188 nM. The IC50 with NCI-H929 cell lines came out at 93 nM.

For the compound `CC(O)c1ccc2c(c1)[C@]1(CC[C@@](Nc3cccc(Cl)c3)(C(=O)O)CC1)[C@@H](C[C@@H](C)COc1ccnc3c1[C@H](C)CC[C@H]3C)C2` (stereo partly drawn) [Example 865, (1r,2′S,4S)-4-(3-chloroanilino)-2′-[(2R)-3-{[(5R,8R)-5,8-dimethyl-5,6,7,8-tetrahydroquinolin-4-yl]oxy}-2-methylpropyl]-6′-(1-hydroxyethyl)-2′,3′-dihydrospiro[cyclohexane-1,1′-indene]-4-carboxylic acid], the Ki in experiment [1] worked out at 0.204 nM. In addition, the IC50 in experiment [2] is 45.9 nM.

For `C[C@@H](COc1ccnc2c1[C@H](C)CCC2)C[C@H]1Cc2ccc(C=O)cc2[C@]12CC[C@@](Nc1cccc(Cl)c1)(C(=O)O)CC2` [Example 867, (1r,2′S,4S)-4-(3-chloroanilino)-6′-formyl-2′-[(2R)-2-methyl-3-{[(5R)-5-methyl-5,6,7,8-tetrahydroquinolin-4-yl]oxy}propyl]-2′,3′-dihydrospiro[cyclohexane-1,1′-indene]-4-carboxylic acid], the Ki in experiment [1] came to 0.0988 nM. Moreover, the IC50 in experiment [2] was 73 nM.

Take `C[C@@H](COc1ccnc2c1[C@H](C)CCC2)CC1=Cc2ccc(CO)cc2[C@]12CC[C@@](Nc1cccc(Cl)c1)(C(=O)O)CC2` [Example 868, (1r,4R)-4-(3-chloroanilino)-6′-(hydroxymethyl)-2′-[(2R)-2-methyl-3-{[(5R)-5-methyl-5,6,7,8-tetrahydroquinolin-4-yl]oxy}propyl]spiro[cyclohexane-1,1′-indene]-4-carboxylic acid]: in experiment [1], the Ki amounted to 0.19 nM. Moreover, the IC50 in experiment [2] worked out at 231 nM.

Regarding `C[C@@H](COc1ccnc2c1[C@H](C)CCC2)C[C@@H]1Cc2ccc(CO)cc2[C@]12CC[C@@](Nc1cccc(Cl)c1)(C(=O)O)CC2` [Example 869, (1r,2′R,4R)-4-(3-chloroanilino)-6′-(hydroxymethyl)-2′-[(2R)-2-methyl-3-{[(5R)-5-methyl-5,6,7,8-tetrahydroquinolin-4-yl]oxy}propyl]-2′,3′-dihydrospiro[cyclohexane-1,1′-indene]-4-carboxylic acid], in experiment [1], the Ki is 0.384 nM. In addition, the IC50 in experiment [2] was 193 nM.

On to `C[C@@H](COc1ccnc2c1[C@H](C)CCC2)C[C@@H]1Cc2ccc(COC3CCCO3)cc2[C@]12CC[C@@](Nc1cccc(Cl)c1)(C(=O)O)CC2` (stereo partly drawn) [Example 871, (1r,2′R,4R)-4-(3-chloroanilino)-2′-[(2R)-2-methyl-3-{[(5R)-5-methyl-5,6,7,8-tetrahydroquinolin-4-yl]oxy}propyl]-6′-{[(oxolan-2-yl)oxy]methyl}-2′,3′-dihydrospiro[cyclohexane-1,1′-indene]-4-carboxylic acid], for which the Ki in experiment [1] came to 0.737 nM. The IC50 in experiment [2] was found to be 114 nM.

On to `CC(=O)c1cc2c(cc1F)C=C(C[C@@H](C)COc1ccnc3c1[C@@H](C)CCC3)[C@]21CC[C@](Nc2cccc(Cl)c2)(C(=O)O)CC1` [Example 873, (1r,4R)-6′-acetyl-4-(3-chloroanilino)-5′-fluoro-2′-[(2R)-2-methyl-3-{[(5S)-5-methyl-5,6,7,8-tetrahydroquinolin-4-yl]oxy}propyl]spiro[cyclohexane-1,1′-indene]-4-carboxylic acid], for which the Ki in experiment [1] amounted to 4.17 nM. Further, in experiment [2], the IC50 amounted to 341 nM.

Regarding `COCc1ccc2c(c1)[C@]1(CC[C@@](Nc3cccc(Cl)c3)(C(=O)O)CC1)[C@H](C[C@@H](C)COc1ccnc3c1[C@H](C)CCC3)C2` [Example 920, (1r,2′R,4R)-4-(3-chloroanilino)-6′-(methoxymethyl)-2′-[(2R)-2-methyl-3-{[(5R)-5-methyl-5,6,7,8-tetrahydroquinolin-4-yl]oxy}propyl]-2′,3′-dihydrospiro[cyclohexane-1,1′-indene]-4-carboxylic acid], the Ki in experiment [1] stood at 3.85 nM. Also, the IC50 in experiment [2] amounted to 104 nM.

Turning to `C[C@@H](COc1ccnc2c1[C@H](C)CCC2)C[C@H]1Cc2cc3c(cc2[C@]12CC[C@@](Nc1cccc(Cl)c1)(C(N)=O)CC2)OCO3` [Example 954, (1r,4S,6′S)-4-(3-chloroanilino)-6′-[(2R)-2-methyl-3-{[(5R)-5-methyl-5,6,7,8-tetrahydroquinolin-4-yl]oxy}propyl]-6′,7′-dihydro-2′H-spiro[cyclohexane-1,5′-indeno[5,6-d][1,3]dioxole]-4-carboxamide], the IC50 with NCI-H929 cell lines (Homo sapiens, NCI-H929, 48 h) came out at 2790 nM.

Consider `CNC(=O)[C@]1(Nc2cccc(Cl)c2)CC[C@@]2(CC1)c1cc3c(cc1C[C@@H]2C[C@@H](C)COc1ccnc2c1[C@H](C)CCC2)OCO3` [Example 955, (1r,4S,6′S)-4-(3-chloroanilino)-N-methyl-6′-[(2R)-2-methyl-3-{[(5R)-5-methyl-5,6,7,8-tetrahydroquinolin-4-yl]oxy}propyl]-6′,7′-dihydro-2′H-spiro[cyclohexane-1,5′-indeno[5,6-d][1,3]dioxole]-4-carboxamide], for which the IC50 in the experiment with NCI-H929 cell lines (Homo sapiens, NCI-H929, 48 h) is 11300 nM.

As for `C[C@@H](COc1ccnc2c1[C@H](C)CCC2)C[C@H]1Cc2cc3c(cc2[C@]12CC[C@@](Nc1cccc(Cl)c1)(C(=O)N(C)C)CC2)OCO3` [Example 956, (1r,4S,6′S)-4-(3-chloroanilino)-N,N-dimethyl-6′-[(2R)-2-methyl-3-{[(5R)-5-methyl-5,6,7,8-tetrahydroquinolin-4-yl]oxy}propyl]-6′,7′-dihydro-2′H-spiro[cyclohexane-1,5′-indeno[5,6-d][1,3]dioxole]-4-carboxamide], the IC50 with NCI-H929 cell lines (Homo sapiens, NCI-H929, 48 h) was found to be 14500 nM.

One may read the Ki as a measure of affinity in units of concentration, obtained from inhibition or displacement.
